Assay results: patent US9273319B2, “Molecular switches and methods for making and using the same” (The Johns Hopkins University, priority 2002, dated 2016)
Converted amounts (≈) assume the structure as drawn.

What was measured:
[1] = target: T1, T164-165 β-lactamase: maltose binding protein (MBP) fusion (Escherichia coli, UniProt P0AEX9, INS191[…]); assay: Effect of sugars on the T164-165 fusion's hydrolysis of nitrocefin (FIG. 8); type: biochemical, E. coli; conditions: 150 μM nitrocefin, 5 mM of the indicated sugar
T1 construct: made in house; host or cells: E. coli (library selected in malE auxotroph PM9F'; derivative of plasmid pDIMC8-Mal, IPTG-inducible lac promoter)
Method: The fusion comprises an insertion of β-lactamase amino acid sequences into an MBP acceptor polypeptide with a tandem duplication of amino acids 164-165 of MBP at the insertion site. The velocity of nitrocefin hydrolysis with 150 μM nitrocefin and 5 mM of the indicated sugars was compared to the velocity without any sugar. […] All sugars known to bind to wildtype MBP and induce a conformational change (maltose, maltotriose and maltohexose) increase the rate of hydrolysis by approximately 40%.
Although MBP can bind many other linear maltodextrins, cyclodextrins and reduced or oxidized variants thereof, only those ligands which, induce a conformational change in MBP (Hall, et al. (1997) J. Biol. Chem. 272(28): 17605-17609; Ball, et al. (1997) J. Biol. Chem. 272(28): 17610-17614) behaved as a switch (see, FIG. 8).

[2] = tested on: DH5α/pDIMC8-Mal; assay: MIC for ampicillin on LB plates; type: cell-based, E. coli; conditions: Escherichia coli
Description: The E. coli […] was cloned into plasmid pDIMC8 (Ostermeier and Benkovic, 1999, Nat Biotechnol. 17:1205-1209) under control of the IPTG inducible lac promoter to create plasmid […].

Compound | increase of rate of nitrocefin hydrolysis compared to velocity without any sugar [1] | MIC [2]
OC[C@H]1O[C@H](O[C@H]2[C@H](O)[C@@H](O)C(O)O[C@@H]2CO)[C@H](O)[C@@H](O)[C@@H]1O (mixture of isomers) [maltose] | approximately 40% | –
CC1(C)S[C@@H]2[C@H](NC(=O)[C@H](N)c3ccccc3)C(=O)N2[C@H]1C(=O)O [ampicillin] | – | 30 to 35 µg/mL (≈ 85.9 to 100 µM)
OC[C@@H](O)[C@@H](O[C@H]1O[C@H](CO)[C@@H](O)[C@H](O)[C@H]1O)[C@H](O)[C@@H](O)CO [maltitol] | did not have a significant effect | –
OC[C@H]1O[C@H](O[C@H]2[C@H](O)[C@@H](O)[C@@H](O[C@H]3[C@H](O)[C@@H](O)[C@@H](O[C@H]4[C@H](O)[C@@H](O)[C@@H](O[C@H]5[C@H](O)[C@@H](O)[C@@H](O[C@H]6[C@H](O)[C@@H](O)C(O)O[C@@H]6CO)O[C@@H]5CO)O[C@@H]4CO)O[C@@H]3CO)O[C@@H]2CO)[C@H](O)[C@@H](O)[C@@H]1O (stereo partly shown) [maltohexose] | approximately 40% | –
OC[C@H]1O[C@@](CO)(O[C@H]2O[C@H](CO)[C@@H](O)[C@H](O)[C@H]2O)[C@@H](O)[C@@H]1O [sucrose] | did not have a significant effect | –
OC[C@H]1O[C@@H]2O[C@H]3[C@H](O)[C@@H](O)[C@@H](O[C@H]4[C@H](O)[C@@H](O)[C@@H](O[C@H]5[C@H](O)[C@@H](O)[C@@H](O[C@H]6[C@H](O)[C@@H](O)[C@@H](O[C@H]7[C@H](O)[C@@H](O)[C@@H](O[C@H]8[C@H](O)[C@@H](O)[C@@H](O[C@H]1[C@H](O)[C@H]2O)O[C@@H]8CO)O[C@@H]7CO)O[C@@H]6CO)O[C@@H]5CO)O[C@@H]4CO)O[C@@H]3CO [β-cyclodextrin] | did not have a significant effect | –
maltotriose | approximately 40% | –
